Assays:
Test in all cases: relative viability (nuclei count vs DMSO), 5 days (fraction); higher = more cells survive
NCI-H1666 = test system: NCI-H1666
Summary of the method: (§1)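 Lung cancer cell lines in 1536-well plates got either a single drug or a fixed anchor-drug dose together with five library-drug doses (not always all listed) in √10 steps, by pin tool, on the day after seeding. Nuclei were counted after 5 days, and relative viability is the treated-to-vehicle ratio of nuclei counts. Values are medians of duplicate plates.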

NCI-H1915 = test system: NCI-H1915
Summary of the method: as §1

NCI-H1755 = test system: NCI-H1755
Summary of the method: as §1

A-427 = test system: A-427
Summary of the method: as §1

NCI-H2170 = test system: NCI-H2170
Summary of the method: as §1

NCI-H2023 = test system: NCI-H2023
Summary of the method: as §1

BEN = test system: BEN
Summary of the method: as §1

NCI-H460 = test system: NCI-H460
Summary of the method: as §1

NCI-H1395 = test system: NCI-H1395
Summary of the method: as §1

LCLC-97TM1 = test system: LCLC-97TM1
Summary of the method: as §1

NCI-H1944 = test system: NCI-H1944
Summary of the method: as §1

SK-LU-1 = test system: SK-LU-1
Summary of the method: as §1

NCI-H1793 = test system: NCI-H1793
Summary of the method: as §1

NCI-H650 = test system: NCI-H650
Summary of the method: as §1

LU99A = test system: LU99A
Summary of the method: as §1

LXF-289 = test system: LXF-289
Summary of the method: as §1

NCI-H2126 = test system: NCI-H2126
Summary of the method: as §1

PC-3 [JPC-3] = test system: PC-3 [JPC-3]
Summary of the method: as §1

HARA = test system: HARA
Summary of the method: as §1

NCI-H23 = test system: NCI-H23
Summary of the method: as §1

LOU-NH91 = test system: LOU-NH91
Summary of the method: as §1

NCI-H441 = test system: NCI-H441
Summary of the method: as §1

NCI-H322M = test system: NCI-H322M
Summary of the method: as §1

Compound: O=C(O)CCCCC(CCSCc1ccccc1)SCc1ccccc1 (centres undefined) [CPI-613] + O=C(c1cc(Cc2n[nH]c(=O)c3ccccc23)ccc1F)N1CCN(C(=O)C2CC2)CC1 [Olaparib] (partner 8 µM)
- relative viability (NCI-H1666; first compound 5 µM): 0.749
- relative viability (NCI-H1666; first compound 15.81 µM): 0.772
- relative viability (NCI-H1666; first compound 50 µM): 0.865
- relative viability (NCI-H1666; first compound 158.11 µM): 0.304
- relative viability (NCI-H1666; first compound 500 µM): 0.396
- relative viability (NCI-H1915; first compound 5 µM): 0.25
- relative viability (NCI-H1915; first compound 15.81 µM): 0.258
- relative viability (NCI-H1915; first compound 50 µM): 0.265
- relative viability (NCI-H1915; first compound 158.11 µM): 0.124
- relative viability (NCI-H1915; first compound 500 µM): 0.0608
- relative viability (NCI-H1755; first compound 5 µM): 0.91
- relative viability (NCI-H1755; first compound 15.81 µM): 0.894
- relative viability (NCI-H1755; first compound 50 µM): 0.954
- relative viability (NCI-H1755; first compound 158.11 µM): 0.751
- relative viability (NCI-H1755; first compound 500 µM): 0.805
- relative viability (A-427; first compound 5 µM): 0.775
- relative viability (A-427; first compound 15.81 µM): 0.7
- relative viability (A-427; first compound 50 µM): 0.711
- relative viability (A-427; first compound 158.11 µM): 0.229
- relative viability (A-427; first compound 500 µM): 0.177
- relative viability (NCI-H2170; first compound 5 µM): 0.591
- relative viability (NCI-H2170; first compound 15.81 µM): 0.554
- relative viability (NCI-H2170; first compound 50 µM): 0.534
- relative viability (NCI-H2170; first compound 158.11 µM): 0.403
- relative viability (NCI-H2170; first compound 500 µM): 0.18
- relative viability (NCI-H2023; first compound 5 µM): 0.47
- relative viability (NCI-H2023; first compound 15.81 µM): 0.425
- relative viability (NCI-H2023; first compound 50 µM): 0.41
- relative viability (NCI-H2023; first compound 158.11 µM): 0.134
- relative viability (NCI-H2023; first compound 500 µM): 0.009
- relative viability (BEN; first compound 5 µM): 1.09
- relative viability (BEN; first compound 15.81 µM): 0.853
- relative viability (BEN; first compound 50 µM): 0.909
- relative viability (BEN; first compound 158.11 µM): 0.786
- relative viability (BEN; first compound 500 µM): 0.931
- relative viability (NCI-H460; first compound 5 µM): 0.37
- relative viability (NCI-H460; first compound 15.81 µM): 0.321
- relative viability (NCI-H460; first compound 50 µM): 0.373
- relative viability (NCI-H460; first compound 158.11 µM): 0.274
- relative viability (NCI-H460; first compound 500 µM): 0.361
- relative viability (NCI-H1395; first compound 5 µM): 0.473
- relative viability (NCI-H1395; first compound 15.81 µM): 0.479
- relative viability (NCI-H1395; first compound 50 µM): 0.469
- relative viability (NCI-H1395; first compound 158.11 µM): 0.436
- relative viability (NCI-H1395; first compound 500 µM): 0.266
- relative viability (LCLC-97TM1; first compound 5 µM): 0.322
- relative viability (LCLC-97TM1; first compound 15.81 µM): 0.287
- relative viability (LCLC-97TM1; first compound 50 µM): 0.372
- relative viability (LCLC-97TM1; first compound 158.11 µM): 0.183
- relative viability (LCLC-97TM1; first compound 500 µM): 0.191
- relative viability (NCI-H1944; first compound 5 µM): 0.404
- relative viability (NCI-H1944; first compound 15.81 µM): 0.401
- relative viability (NCI-H1944; first compound 50 µM): 0.491
- relative viability (NCI-H1944; first compound 158.11 µM): 0.288
- relative viability (NCI-H1944; first compound 500 µM): 0.383
- relative viability (SK-LU-1; first compound 5 µM): 0.416
- relative viability (SK-LU-1; first compound 15.81 µM): 0.392
- relative viability (SK-LU-1; first compound 50 µM): 0.427
- relative viability (SK-LU-1; first compound 158.11 µM): 0.352
- relative viability (SK-LU-1; first compound 500 µM): 0.238
- relative viability (NCI-H1793; first compound 5 µM): 0.75
- relative viability (NCI-H1793; first compound 15.81 µM): 0.789
- relative viability (NCI-H1793; first compound 50 µM): 0.856
- relative viability (NCI-H1793; first compound 158.11 µM): 0.146
- relative viability (NCI-H1793; first compound 500 µM): 0.0648
- relative viability (NCI-H650; first compound 5 µM): 0.404
- relative viability (NCI-H650; first compound 15.81 µM): 0.393
- relative viability (NCI-H650; first compound 50 µM): 0.366
- relative viability (NCI-H650; first compound 158.11 µM): 0.339
- relative viability (NCI-H650; first compound 500 µM): 0.359
- relative viability (LU99A; first compound 5 µM): 0.26
- relative viability (LU99A; first compound 15.81 µM): 0.237
- relative viability (LU99A; first compound 50 µM): 0.242
- relative viability (LU99A; first compound 158.11 µM): 0.127
- relative viability (LU99A; first compound 500 µM): 0.161
- relative viability (LXF-289; first compound 5 µM): 0.988
- relative viability (LXF-289; first compound 15.81 µM): 1
- relative viability (LXF-289; first compound 50 µM): 1
- relative viability (LXF-289; first compound 158.11 µM): 0.692
- relative viability (LXF-289; first compound 500 µM): 0.8
- relative viability (NCI-H2126; first compound 5 µM): 0.904
- relative viability (NCI-H2126; first compound 15.81 µM): 1.07
- relative viability (NCI-H2126; first compound 50 µM): 0.845
- relative viability (NCI-H2126; first compound 158.11 µM): 0.757
- relative viability (NCI-H2126; first compound 500 µM): 0.128
- relative viability (PC-3 [JPC-3]; first compound 5 µM): 1.11
- relative viability (PC-3 [JPC-3]; first compound 50 µM): 0.953
- relative viability (PC-3 [JPC-3]; first compound 158.11 µM): 0.32
- relative viability (PC-3 [JPC-3]; first compound 500 µM): 0.1
- relative viability (HARA; first compound 5 µM): 0.509
- relative viability (HARA; first compound 15.81 µM): 0.813
- relative viability (HARA; first compound 50 µM): 0.772
- relative viability (HARA; first compound 158.11 µM): 0.25
- relative viability (HARA; first compound 500 µM): 0.0476
- relative viability (NCI-H23; first compound 5 µM): 0.33
- relative viability (NCI-H23; first compound 15.81 µM): 0.28
- relative viability (NCI-H23; first compound 50 µM): 0.282
- relative viability (NCI-H23; first compound 158.11 µM): 0.0911
- relative viability (NCI-H23; first compound 500 µM): 0.0098
- relative viability (LOU-NH91; first compound 5 µM): 0.883
- relative viability (LOU-NH91; first compound 15.81 µM): 0.86
- relative viability (LOU-NH91; first compound 50 µM): 0.867
- relative viability (LOU-NH91; first compound 158.11 µM): 0.442
- relative viability (LOU-NH91; first compound 500 µM): 0.533
- relative viability (NCI-H441; first compound 5 µM): 0.456
- relative viability (NCI-H441; first compound 15.81 µM): 0.483
- relative viability (NCI-H441; first compound 50 µM): 0.596
- relative viability (NCI-H441; first compound 158.11 µM): 0.109
- relative viability (NCI-H441; first compound 500 µM): 0.0239
- relative viability (NCI-H322M; first compound 5 µM): 0.74
- relative viability (NCI-H322M; first compound 15.81 µM): 0.769
- relative viability (NCI-H322M; first compound 50 µM): 0.761
- relative viability (NCI-H322M; first compound 158.11 µM): 0.594
- relative viability (NCI-H322M; first compound 500 µM): 0.106

Source: the supplement of paper PMC10307832
